Data: article PMC10056899, “Neuroprotective and Antiherpetic Properties of Polyphenolic Compounds from Maackia amurensis Heartwood” (Molecules, 2023)
Several values for one entry are separate records, joined by “and”; a condition that tells them apart may be missing. Equal entries are not always repeated. Where two headings read alike, the source gives them in different places.

Tests used:
HSV-1 [1] = assay: Anti-HSV-1 activity, HSV-1 DNA level by real-time PCR (RT-PCR); type: cell-based, HSV-1 strain L2; details: 5 µg/mL, simultaneous treatment, 48 h; for 1, 4 and Maxar given on average
Method: The anti-HSV-1 activity of the polyphenolic compounds from M. amurensis was also studied using the real-time PCR (RT-PCR) technique (Figure 5 and Table S69, Supplementary Data). Vero cells were simultaneously infected with 100 TCD50/mL HSV-1 and treated with polyphenolic compounds 1–6 at concentrations of 50 and 5 μg/mL. After 48 h of cell incubation, viral DNA was extracted from the supernatants, and the relative level of HSV-1 DNA was determined using RT-PCR. The effect of stilbenes on the relative level of viral DNA was assessed by 2^−ΔCt method and reported as fold reduction relative to virus control, to which the value of 1.0 was assigned.
For the viral DNA extraction assay, Vero cells grown in 96-well plates were infected with HSV-1 and simultaneously treated with polyphenolic compounds and incubated at 37 °C in a CO2-incubator for 48 h. After incubation, the culture media and the cells scraped from the plate were transferred to centrifuge tubes. The cell debris was removed by centrifugation at 300× g for 10 min. Then, supernatant was collected and kept at −20 °C. The HSV-1 DNA was extracted from supernatant by using the AmpliSens® DNA-sorb-AM (K1-12-100-CE) nucleic acid extraction kit (Moscow, Russia) according to the manufacturer′s instructions. […]
The DNA HSV was detected in the obtained DNA samples using the AmpliSens® HSV I, II-FRT-100F PCR kit (Moscow, Russia) on a real-time PCR instrument Rotor-Gene Q (Qiagen, Hilden, Nordrhein-Westfalen, Germany) according to the manufacturer′s instructions. […] In the real-time PCR, the amplified product is detected with the use of fluorescent dyes. […] The threshold cycle number, Ct, was measured as the PCR cycle, where the amount of amplified target reached the threshold value. The reduction in the HSV-1 DNA levels in culture supernatants was assessed by the change in the threshold cycle (ΔCt) (Equation (4)):(4) ΔCt=Cttv−Ctcv where: • Cttv is the average Ct value for the infected samples after treatment with polyphenolic compounds; • Ctcv corresponds to the average Ct value for the virus control. […]

HSV-1 [2] = assay: Anti-HSV-1 activity, cytopathic effect (CPE) inhibition assay in Vero cells; type: cell-based, HSV-1 strain L2; details: for IC50: read-out: IC50 (CPE assay); for SI = CC50/IC50: Vero cells, HSV-1
Method: The HSV-1 strain L2 and Vero cell culture (kidney epithelial cells of the African green monkey Chlorocebus sp.) were obtained from the N.F. Gamaleya Federal Research Centre for Epidemiology and Microbiology (Moscow, Russia). HSV-1 was grown in Vero cells, using Dulbecco′s Modified Eagle′s Medium (DMEM, Biolot, St. Petersburg, Russia) supplemented with 10% fetal bovine serum (FBS, Biolot, St. Petersburg, Russia) and 100 U/mL of gentamycin (Dalkhimpharm, Khabarovsk, Russia), at 37 °C in a CO2 incubator. In the maintenance medium, the FBS concentration was decreased to 1%.
The tested compounds were dissolved in DMSO (Sigma, St. Louis, MO, USA) at a concentration 10 mg/mL and stored at −20 °C. For cytotoxicity and anti-HSV-1 activity determination, the stock solutions were diluted with DMEM so that the final concentration of DMSO was 0.5%.
The anti-HSV-1 activity of stilbenes was evaluated using cytopathic effect (CPE) inhibition assay in Vero cells. We infected the monolayer of cells grown in 96-well plates (1 × 10^4 cells/well) with 100 µL/well of virus suspension (100 TCD50/mL) and we simultaneously treated it with stilbenes 1–6 (100 µL/well) at various concentrations (from 1 to 400 μg/mL) for one hour at 37 ◦C. After virus absorption, we removed the mixture of virus and stilbenes, washed the cells, and added the maintenance medium with 1% FBS. […] We used MTT assay to evaluate the antiviral activity of stilbenes. The viral inhibition rate (IR, %) was calculated according to Equation (3):(3) IR, %=Atv−Acv/Acd−Acv×100, where: • Atv is the absorbance of cells infected with virus and treated with a polyphenolic compound; • Acv is the absorbance of the untreated virus-infected cells; • Acd is the absorbance of control (untreated and non-infected) cells.
The selectivity index (SI) was calculated as the ratio of CC50 to IC50. Experiments were repeated three times.

[3] = Ferric reducing antioxidant power (FRAP) assay; details: 4 min, pH 3.6
Method: The FRAP assay was carried out as described in [41]. We prepared FRAP reagent by mixing 2.5 mL of TPTZ (2,4,6-tris(2-pyridyl)-s-triazine) solution (10 mM) in 40 mM HCl and […] of FeCl3 solution (20 mM) in acetate buffer solution (300 mM, pH 3.6). Then, we added stilbenes 1–6 to 3 mL of FRAP reagent at concentrations from 1 to 34 µM. The mixture was kept in the dark at room temperature for 4 min. Then, we measured the absorbance at 595 nm using a Shimadzu UV 1240 spectrophotometer. Equation (2) was used to calculate the FRAP values of stilbenes 1–6:(2) FRAP=CFe/Cx, where: • CFe is the concentration of Fe^2+ (µM) formed in the reaction; • Cx is the concentration of polyphenolic compounds in the reacting mixture.
The concentration of Fe^2+ (µM) formed in the reaction was determined using the calibration curve obtained for different concentrations of FeSO4·7H2O.

Row | Structure (SMILES) | Reduction of relative level of HSV-1 DNA relative to virus control (HSV-1 [1]) [log10] | IC50 (HSV-1 [2]; Human alphaherpesvirus 1, Vero) | SI = CC50/IC50 (HSV-1 [2]) | FRAP CFe2+(µM)/Cpolyphenolic compound (µM) [3] | FRAP CFe2+(µM)/Cpolyphenolic compound (μkg/mL) [3] | IC50 (HSV-1 [2]; Human alphaherpesvirus 1, added to Vero cells simultaneously with the virus, 100 TCD50/mL)
1 | COc1ccc([C@@H]2COc3cc(O)ccc3[C@H]2c2c(O)cc(O)cc2/C=C/c2ccc(O)c(O)c2)c(O)c1 [Compound 1] | ~1.3 | 14 µg/mL and 27.2 µM | 11.6 ± 1.3 | 12.36 ± 1.38 CFe2+(µM)/Cpolyphenolic compound (µM) | 24.04 ± 2.68 CFe2+(µM)/Cpolyphenolic compound (μkg/mL) | 
2 | Oc1ccc(/C=C/c2cc(O)cc3c2[C@H](c2cc(O)cc(O)c2)[C@@H](c2ccc(O)c(O)c2)O3)cc1 [Compound 4, scirpusin A] | ~1.3 |  | 14.4 ± 1.7 | 11.44 ± 1.41 CFe2+(µM)/Cpolyphenolic compound (µM) | 24.34 ± 3.00 CFe2+(µM)/Cpolyphenolic compound (μkg/mL) | 13.8 µg/mL and 29.4 µM
